Source: patent US20240132517A1, “MACROCYCLIC COMPOUND, PHARMACEUTICAL COMPOSITION, AND USE THEREOF” (GOHARMONY THERAPEUTICS (SHENZHEN) CO., LTD., priority 2021, published 2024)
pIC50: −log10 of the molar value.

What was measured:
[1] = molecular target: SRC (Homo sapiens (Human), UniProt P12931); assay: Enzymatic inhibitory activity, mobility shift assay, SRC; conditions: read-out: SRC IC50; kinase mobility shift assay
Method: The powders of the compound were dissolved in 100% DMSO to make a 10 mM stock solution. […] A stop detection solution was added to stop the enzymatic reaction, and the conversion rate was read with Caliper EZ Reader II.

[2] = tested on: SNU-5 cells; assay: Cell viability assay against SNU-5 cells (CellTiter-Glo); format: cell-based; conditions: Homo sapiens, 72 hours
Method: Human gastric cancer cell line SNU-5 culture medium was IMDM basal culture medium supplemented with 10% FBS (fetal bovine serum) and 1% P/S (penicillin/streptomycin), Ba/F3-TEL-CSF1R stably transfected cell line medium was RPMI-1640 medium supplemented with 10% FBS and 1% P/S. Both cell lines were cultured in a carbon dioxide incubator at 37° C. with a CO2 concentration of 5%.
(§1) In the assay of compounds, SNU-5 and Ba/F3-TEL-CSF1R cells were plated in 96-well cell culture plates (Corning, Cat# 3610) at a concentration of 3000 cells/100 μL per well, and cultured overnight. Starting from 200 μM, the compound was subjected to a 3-fold gradient with DMSO, and a total of 9 concentrations were diluted to prepare a 200-fold drug solution. 3 μl of the 200-fold concentration compound was diluted with 197 μl of complete medium to obtain a 3-fold concentration compound. 50 μl of the latter was took and added to the cell well plate, and culture was continued for 72 hours. The cell culture plate was equilibrated to room temperature before assay, and 40 μL of CellTiter-Glo (Promega, Cat# G7571) was added to each well, and the cells were lysed by shaking for two minutes. The cell plate was then left at room temperature for 60 minutes to stabilize the luminescence signal. Luminescence values were read using a PerkinElemer Envision multifunctional plate reader.
(§2) Data analysis: • Luminescence values were processed using the following formula:
(§3) %Inh=(Max signal−Compound signal)/(Max signal−Min signal)×100 • Max signal: value of a DMSO treatment group; • Min signal: value of a blank medium group.
(§4) The processed data were analyzed using GraphPad Prism 5.0 software, and nonlinear S-curve regression was used to fit the data to derive dose-response curves from which IC50 values were calculated.

[3] = Pharmacokinetic experiments in rats; format: in vivo; conditions: male SD rats, 1 mg/kg, oral gavage and intravenous injection
Method: Male SD rats were divided into groups, 3 rats in each group, and the compound of the Examples (1 mg/kg) was given by oral, single gavage and intravenous injection, respectively. The animals were fasted overnight before the experiments, and the fasting time was from 10 hours before administration to 4 hours after administration. Blood was collected at 0.25, 0.5, 1, 2, 4, 8 and 24 hours after administration in the oral group, and at 0.083, 0.25, 0.5, 1, 2, 4, 8 and 24 hours after injection in the intravenous injection group. After anesthesia with isoflurane using a small animal anesthesia machine, 0.3 mL of whole blood was collected through the fundus venous plexus and placed in a heparin anticoagulant tube. The sample was centrifuged at 4° C.and 4000 rpm for 5 minutes, the plasma was transferred to a centrifuge tube, and placed at […] and stored until analysis. Plasma samples were extracted by protein precipitation, and the extract was analyzed by LC/MS/MS.

[4] = molecular target: CSF1R (Homo sapiens (Human), UniProt P07333); assay: Enzymatic inhibitory activity, mobility shift assay, CSF1R; format: biochemical; conditions: kinase mobility shift assay
Text: (§5) Compounds against MET, SRC and CSF1R kinases were screened by use of mobility shift assay. The core of this screening platform was the MSA based on microfluidic chip technology, which applied the basic idea of capillary electrophoresis to a microfluidic environment. The substrate used in the experiment was a polypeptide with fluorescent labeling. Under the catalysis of the enzyme in the reaction system, the substrate was converted into a product, and it carried charge also changed accordingly. MSA utilized the difference in charge between the substrate and the product to separate them, and detect them separately.
(§6) The operation method is briefly described as follows:
(§7) The powders of the compound were dissolved in 100% DMSO to make a 10 mM stock solution. The initial test concentration of the compound was 10,000 nM, 3-fold serial dilution, 10 concentrations, and repeated hole detection. […] A stop detection solution was added to stop the enzymatic reaction, and the conversion rate was read with Caliper EZ Reader II.
(§8) wherein: Conversion%_sample is the conversion rate reading of the sample; Conversion%_min: the average value of the negative control wells, representing the conversion rate readings of the wells without enzyme activity; Conversion%_max: the average ratio of the positive control wells, representing the conversion rate readings of the wells without compound inhibition.
(§9) Dose-response curve fitting: with the log value of the concentration as the X-axis, and the percentage inhibition rate as the Y-axis, the log(inhibitor) vs. response-Variable slope of the analysis software GraphPad Prism 5 was used to fit the dose-response curve, thereby obtaining IC50 values of each compound against inhibition of enzyme activity.

[5] = molecular target: c-Met (Homo sapiens (Human), UniProt P08581); assay: Enzymatic inhibitory activity, mobility shift assay, c-Met; format: biochemical; conditions: kinase mobility shift assay
Text: as §5, §6, §7, §8, §9

[6] = tested on: HCC827 cells; assay: Cell viability assay against HCC827 cells (CellTiter-Glo); format: cell-based, human; conditions: 72 hours
Method: Human non-small cell lung cancer cells, HCC827 cells, were cultured in an incubator (37° C., 5% CO2) with 1640 medium plus 10% FBS (fetal bovine serum) and 1% P/S (penicillin/streptomycin). In the assay of the compound, the HCC827 cells were plated in a 96-well transparent flat-bottomed black wall plate (Corning, Cat# 3603) at a concentration of 3000 cells/90 uL per well, and the compound was diluted 11 times in a 3-fold gradient starting from 10 mM, and prepared a 10-fold drug solution. Then 10 μL was taken and added to 90 μL of cell culture medium (DMSO final concentration was 0.1%, v/v). After 72 hours of treatment, 100 μL of CellTiter-Glo (Promega, Cat#G7572) was added, cells were lysed by shaking on an orbital shaker for 5 minutes. The cell plate was then left at room temperature for 20 minutes to stabilize the luminescence signal. Luminescence values were read with a SpectraMax Multilabel Microplate Reader (MD, 2104-0010A).
Data were analyzed using GraphPad Prism 5.0 software, and nonlinear S-curve regression was used to fit the data to derive dose-response curves from which IC50 values were calculated.
Cell Viability (%)=(Lumdrug to be tested−Lumculture medium control)/(Lumcell control−Lumculture medium control)×100%.

[7] = Blood-brain distribution experiments in rats; format: in vivo; conditions: male SD rats
Method: The male SD rats were divided into groups, 12 in each group, and the compound of the Examples (10 mg/kg) was administered orally or by gavage. The animals were fasted overnight before the experiments, and the fasting time was from 10 hours before administration to 4 hours after administration. According to the previous pharmacokinetic data, the rats in the Example 1 group were killed at 0.25, 0.5, 2 and 6 hours after administration; the rats in the TPX-0022 group were killed at 0.25, 1, 4 and 8 hours after administration, and blood and brain tissue were collected. After the samples were processed, they were centrifuged at 4° C., 4000 rpm for 5 min, and the plasma was transferred to a centrifuge tube and stored at −80° C.until analysis. Plasma samples were extracted by protein precipitation, and the extract was analyzed by LC/MS/MS.

[8] = tested on: H1975 cells (L858R and T790M double mutations); assay: Synergistic killing of tumor cells with AZD9291, H1975; format: cell-based, human; conditions: 72 hours
Method: (§10) Human lung cancer cells H1975 cells (L858R and T790M double mutations) and HCC827 cells were incubated in an incubator (37° C., 5% CO2) with 1640 medium plus 10% FBS (fetal bovine serum) and 1% P/S (penicillin/ streptomycin) for culture. In the assay of the compound, H1975 cells or HCC827 were plated in a 96-well plate (Corning) at a concentration of 3000 cells/195 μL per well, and the compound was serially diluted to 11 concentrations starting from 10 mM, and 4 μL of each concentration was added into 96 μL of 1640 cluture medium and diluted to form 25× compound, then 5 μL was took and added to 195 μL of cell culture medium (DMSO final concentration is 0.1%, v/v). After 72 hours of treatment, 35 μL of CellTiter-Blue® (purchased from Promega) was added. The fluorescent signal was measured on Flex Station3 (Molecular Devices) according to the operating procedure of the manual, and the IC50 value of inhibition on cell proliferation of the compound was calculated using GraphPad Prism5.0. The Chou-Talalay combination index method was used to calculate the effect of the combination. The combination index (Col) value 0.9≤CI≤1.1 is an additive effect, 0.8≤CI<0.9 is a low synergistic effect, 0.6≤CI<0.8 is a moderate synergistic effect, and 0.4 <CI<0.6 is highly synergistic, and 0.2≤CI<0.4 is strong synergistic.

[9] = tested on: Ba/F3-TEL-CSF1R; assay: Cell viability assay against Ba/F3-TEL-CSF1R cells (CellTiter-Glo); format: cell-based; conditions: 72 hours, read-out: Baf3-TEL CSF1R IC50
Method: as §1, with “Starting” for “In the assay of compounds, SNU-5 and Ba/F3-TEL-CSF1R cells were plated in 96-well cell culture plates (Corning, Cat# 3610) at a concentration of 3000 cells/100 μL per well, and cultured overnight. Starting”
as §2, §3, §4

[10] = tested on: HCC827 cells (MET overexpression); assay: Synergistic killing of tumor cells with AZD9291, HCC827; format: cell-based, human; conditions: 72 hours
Method: as §10

CSF1R, sequence (P07333 20-972): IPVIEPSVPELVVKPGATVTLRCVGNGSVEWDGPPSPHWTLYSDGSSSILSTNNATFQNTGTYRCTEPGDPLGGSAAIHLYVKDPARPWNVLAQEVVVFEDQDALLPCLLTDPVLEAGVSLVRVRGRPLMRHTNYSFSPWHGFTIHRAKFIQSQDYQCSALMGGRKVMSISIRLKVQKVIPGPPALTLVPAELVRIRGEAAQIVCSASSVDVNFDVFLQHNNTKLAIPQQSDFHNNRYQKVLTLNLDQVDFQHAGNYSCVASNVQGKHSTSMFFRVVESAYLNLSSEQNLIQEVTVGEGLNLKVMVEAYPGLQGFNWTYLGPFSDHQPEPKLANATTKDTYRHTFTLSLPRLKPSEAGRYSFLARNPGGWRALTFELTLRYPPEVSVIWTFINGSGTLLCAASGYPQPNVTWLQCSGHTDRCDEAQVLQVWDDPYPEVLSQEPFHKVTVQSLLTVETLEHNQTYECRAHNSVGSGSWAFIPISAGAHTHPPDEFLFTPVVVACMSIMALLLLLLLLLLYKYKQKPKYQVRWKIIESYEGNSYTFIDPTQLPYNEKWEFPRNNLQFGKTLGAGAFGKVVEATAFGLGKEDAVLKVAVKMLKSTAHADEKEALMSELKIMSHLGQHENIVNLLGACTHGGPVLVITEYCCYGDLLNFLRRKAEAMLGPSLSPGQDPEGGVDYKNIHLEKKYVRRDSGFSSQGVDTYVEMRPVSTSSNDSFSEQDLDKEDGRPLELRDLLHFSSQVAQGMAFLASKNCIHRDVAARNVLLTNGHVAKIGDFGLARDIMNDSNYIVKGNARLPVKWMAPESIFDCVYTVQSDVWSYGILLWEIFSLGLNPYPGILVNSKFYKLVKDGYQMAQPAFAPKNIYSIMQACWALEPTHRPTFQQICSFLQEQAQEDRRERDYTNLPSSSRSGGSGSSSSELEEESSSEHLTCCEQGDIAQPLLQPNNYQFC
SRC, sequence (P12931 whole entry, looked up): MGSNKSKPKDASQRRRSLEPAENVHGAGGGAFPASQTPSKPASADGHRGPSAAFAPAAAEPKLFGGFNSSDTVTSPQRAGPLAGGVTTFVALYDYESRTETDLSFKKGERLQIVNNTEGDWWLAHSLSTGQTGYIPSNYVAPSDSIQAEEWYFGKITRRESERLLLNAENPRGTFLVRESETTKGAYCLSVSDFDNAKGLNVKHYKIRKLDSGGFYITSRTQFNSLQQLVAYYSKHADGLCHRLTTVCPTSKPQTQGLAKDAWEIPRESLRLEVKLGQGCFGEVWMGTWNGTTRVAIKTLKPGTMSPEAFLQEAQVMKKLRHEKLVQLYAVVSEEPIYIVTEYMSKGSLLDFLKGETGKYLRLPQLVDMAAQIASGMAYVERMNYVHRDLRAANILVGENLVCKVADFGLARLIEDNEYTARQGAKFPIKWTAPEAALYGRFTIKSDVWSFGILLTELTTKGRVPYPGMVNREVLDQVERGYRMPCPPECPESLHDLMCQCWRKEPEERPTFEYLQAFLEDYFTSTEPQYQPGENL
c-Met, sequence (P08581 25-1390): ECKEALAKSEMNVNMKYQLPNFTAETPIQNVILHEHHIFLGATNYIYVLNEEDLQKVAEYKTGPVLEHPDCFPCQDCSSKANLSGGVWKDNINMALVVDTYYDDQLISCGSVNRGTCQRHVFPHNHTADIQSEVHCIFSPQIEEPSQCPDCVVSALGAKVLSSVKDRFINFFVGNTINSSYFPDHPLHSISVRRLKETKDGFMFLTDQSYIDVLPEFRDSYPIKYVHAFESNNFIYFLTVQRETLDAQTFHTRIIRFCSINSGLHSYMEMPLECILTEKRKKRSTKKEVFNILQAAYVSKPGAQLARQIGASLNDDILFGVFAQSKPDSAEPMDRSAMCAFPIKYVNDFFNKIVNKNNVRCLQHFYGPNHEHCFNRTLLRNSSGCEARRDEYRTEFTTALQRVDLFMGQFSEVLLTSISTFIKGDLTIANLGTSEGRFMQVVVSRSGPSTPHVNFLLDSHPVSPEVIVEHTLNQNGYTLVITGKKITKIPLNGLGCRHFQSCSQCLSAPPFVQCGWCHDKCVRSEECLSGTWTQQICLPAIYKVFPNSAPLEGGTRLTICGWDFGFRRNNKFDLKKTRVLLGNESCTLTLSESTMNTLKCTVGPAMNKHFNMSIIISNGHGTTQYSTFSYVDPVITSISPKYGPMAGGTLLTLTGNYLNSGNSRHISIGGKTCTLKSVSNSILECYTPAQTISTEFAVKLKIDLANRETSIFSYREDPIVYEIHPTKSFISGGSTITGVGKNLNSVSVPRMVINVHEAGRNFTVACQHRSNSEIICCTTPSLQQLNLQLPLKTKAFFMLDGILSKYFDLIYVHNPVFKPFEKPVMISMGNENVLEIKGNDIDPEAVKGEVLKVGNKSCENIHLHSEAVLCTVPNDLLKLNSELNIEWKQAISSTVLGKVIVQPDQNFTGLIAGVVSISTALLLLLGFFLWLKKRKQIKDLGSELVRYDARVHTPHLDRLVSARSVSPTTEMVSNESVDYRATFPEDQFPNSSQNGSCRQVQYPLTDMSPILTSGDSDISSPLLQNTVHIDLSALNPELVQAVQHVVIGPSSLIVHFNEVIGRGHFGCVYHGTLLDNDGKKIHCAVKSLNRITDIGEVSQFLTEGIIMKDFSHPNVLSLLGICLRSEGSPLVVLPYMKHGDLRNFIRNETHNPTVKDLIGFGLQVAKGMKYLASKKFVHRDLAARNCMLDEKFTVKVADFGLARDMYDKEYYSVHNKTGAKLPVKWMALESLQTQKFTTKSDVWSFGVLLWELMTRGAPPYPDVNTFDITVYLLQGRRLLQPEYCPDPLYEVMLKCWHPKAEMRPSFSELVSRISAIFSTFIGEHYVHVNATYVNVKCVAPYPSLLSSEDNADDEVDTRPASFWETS

Row | pIC50 [1] | pIC50 [2] | pIC50 [4] | pIC50 [5] | Kp ([7]; Sprague-Dawley (SD), rat, brain / plasma, oral, 10 mg/kg gavage, 0.25, 0.5, 2 and 6 hours, read-out: drug brain/blood distribution ratio) | entry into brain tissue ([7]; 10 mg/kg gavage) | pIC50 [9] | Structure (SMILES) | pharmacokinetic properties [3] | inhibitory effect on HCC827 cells [6] | combination effect with AZD9291 (Chou-Talalay combination index) [8] | combination effect with AZD9291 (Chou-Talalay combination index) [10]
1 | 7.82 | 8.74 | 9.38 | 9.03 | 1.16 to 6.4 | can enter the brain tissue | 8.47 | CCN1Cc2c(ccc(F)c2C#N)O[C@@H](C)COC(=O)c2cnn3ccc1nc23 [Example 1, (S, 1^3E, 1^4E)-2-ethyl-45-fluoro-6-methyl-9-oxo-5,8-dioxa-2-aza-1(5,3)-pyrazolo[1,5-a]pyrimidine-4(1,2)-benzocyclononane-4^6-carbonitrile] | better pharmacokinetic and pharmacokinetic properties | very obvious inhibitory effect | moderate to high synergistic effect | moderate to high synergistic effect
2 | 6.54 | – | < 5.00 | 7.07 | – | – | – | C[C@H]1COC(=O)c2cnn3ccc(nc23)N[C@H](C)c2cc(F)ccc2O1 [Comparative Compound 42, reference compound] | – | – | – | –
3 | 7.52 | 8.47 | 8.66 | 8.74 | – | – | 8.15 | CCN1Cc2c(ccc(F)c2C#N)O[C@@H](C)COC(=O)c2c(N)nn3ccc1nc23 [Example 2, (S, 1^3E, 1^4E)-1^2-amino-2-ethyl-4^5-fluoro-6-methyl-9-oxo-5,8-dioxa-2-aza-1(5,3)-pyrazolo[1,5-a]pyrimidine-4(1,2)-benzocyclononane-4^6 carbonitrile] | better pharmacokinetic and pharmacokinetic properties | – | – | –

Row | Structure (SMILES) | pIC50 [1] | pIC50 [2] | pIC50 [4] | pIC50 [5] | Kp ([7]; Sprague-Dawley (SD), rat, brain / plasma, oral, 10 mg/kg gavage, 0.25, 0.5, 2 and 6 hours, read-out: drug brain/blood distribution ratio) | entry into brain tissue ([7]; 10 mg/kg gavage) | pIC50 [9] | pharmacokinetic properties [3] | inhibitory effect on HCC827 cells [6] | combination effect with AZD9291 (Chou-Talalay combination index) [8] | combination effect with AZD9291 (Chou-Talalay combination index) [10]
4 | CCN1Cc2c(ccc(F)c2C#N)O[C@@H](C)CNC(=O)c2c(N)nn3ccc1nc23 [TPX-0022, reference compound] | 8.12 | 8.20 | – | – | – | – | – | – | – | – | –
